Laboratory results taken from patent US9499547B2 (BAYER INTELLECTUAL PROPERTY GMBH, priority 2011, dated 2016).
Where a name gives a salt, the structure may show the parent alone.

How the values were obtained:
human full-length MKNK1 [1] = biological target: T1, human full-length MKNK1 (Homo sapiens (Human), UniProt Q9BUB5, T344D); experiment: MKNK1 kinase assay (MKNK1 TR-FRET assay); format: biochemical; details: 10 μM ATP final conc.; 15 min preincubation with enzyme
Protocol: MKNK1-inhibitory activity of compounds of the present invention was quantified employing the MKNK1 TR-FRET assay as described in the following paragraphs.
As substrate for the kinase reaction the biotinylated peptide biotin-Ahx-[…] (C-terminus in amide form) was used which can be purchased e.g. form the company Biosyntan (Berlin-Buch, Germany).
(§1) For the assay 50 nL of a 100 fold concentrated solution of the test compound in DMSO was pipetted into a black low volume 384 well microtiter plate (Greiner Bio-One, Frickenhausen, Germany), 2 μL of a solution of MKNK1 in aqueous assay buffer [50 mM HEPES pH 7.5, 5 mM magnesium chloride, 1.0 mM dithiothreitol, 0.005% (v/v) Nonidet-P40 (Sigma)] was added and the mixture was incubated for 15 min at 22° C. to allow pre-binding of the test compounds to the enzyme before the start of the kinase reaction. Then the kinase reaction was started by the addition of 3 μL of a solution of adenosine-tri-phosphate (ATP, 16.7 μM=>final conc. in the 5 μL assay volume is 10 μM) and substrate (0.1 μM=>final conc. in the 5 μL assay volume is 0.06 μM) in assay buffer and the resulting mixture was incubated for a reaction time of 45 min at 22° C. The concentration of MKNK1 was adjusted depending of the activity of the enzyme lot and was chosen appropriate to have the assay in the linear range, typical concentrations were in the range of 0.05 μg/ml. The reaction was stopped by the addition of 5 μL of a solution of TR-FRET detection reagents (5 nM streptavidine-XL665 [Cisbio Bioassays, Codolet, France] and 1 nM anti-ribosomal protein S6 (pSer236)-antibody from Invitrogen [#44921G] and 1 nM LANCE EU-W1024 labeled ProteinG [Perkin-Elmer, product no. AD0071]) in an aqueous EDTA-solution (100 mM EDTA, 0.1% (w/v) bovine serum albumin in 50 mM HEPES pH 7.5).
(§2) The resulting mixture was incubated for 1 h at 22° C. to allow the formation of complex between the phosphorylated biotinylated peptide and the detection reagents. Subsequently the amount of phosphorylated substrate was evaluated by measurement of the resonance energy transfer from the Eu-chelate to the streptavidine-XL. Therefore, the fluorescence emissions at 620 nm and 665 nm after excitation at 350 nm were measured in a TR-FRET reader, e.g. a Rubystar (BMG Labtechnologies, Offenburg, Germany) or a Viewlux (Perkin-Elmer). The ratio of the emissions at 665 nm and at […] was taken as the measure for the amount of phosphorylated substrate. The data were normalised (enzyme reaction without inhibitor=0% inhibition, all other assay components but no enzyme=100% inhibition).

human full-length MKNK1 [2] = biological target: T1, human full-length MKNK1; experiment: MKNK1 kinase high ATP assay (TR-FRET-based); format: biochemical; details: 2 mM ATP final conc.; 15 min preincubation with enzyme
Protocol: MKNK1 Kinase High ATP Assay
MKNK1-inhibitory activity at high ATP of compounds of the present invention after their preincubation with MKNK1 was quantified employing the TR-FRET-based MKNK1 high ATP assay as described in the following paragraphs.
As substrate for the kinase reaction the biotinylated peptide biotin-Ahx-[…] (C-terminus in amide form) was used, which can be purchased e.g. from the company Biosyntan (Berlin-Buch, Germany).
as §1, with “3.3 mM=>final” for “16.7 μM=>final”, “2 mM)” for “10 μM)”, “30” for “45”, “0.003 μg/mL.” for “0.05 μg/ml.”
as §2

T1 sequence (Q9BUB5 other isoform, or with tags, fused parts or gaps T344D): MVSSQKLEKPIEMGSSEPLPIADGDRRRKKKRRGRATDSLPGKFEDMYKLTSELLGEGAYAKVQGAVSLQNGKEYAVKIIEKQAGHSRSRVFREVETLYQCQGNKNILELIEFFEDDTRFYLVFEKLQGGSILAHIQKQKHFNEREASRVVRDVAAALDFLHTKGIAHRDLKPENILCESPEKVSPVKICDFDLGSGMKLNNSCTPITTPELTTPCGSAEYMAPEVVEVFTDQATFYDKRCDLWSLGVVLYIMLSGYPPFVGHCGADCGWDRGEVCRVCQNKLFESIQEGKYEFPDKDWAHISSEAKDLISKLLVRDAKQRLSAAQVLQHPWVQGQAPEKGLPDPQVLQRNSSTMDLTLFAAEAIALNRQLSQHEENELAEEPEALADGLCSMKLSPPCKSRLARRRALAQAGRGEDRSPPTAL

Compound | IC50 (human full-length MKNK1 [1]) [nM] | IC50 (human full-length MKNK1 [2]) [nM]
NCCOc1ccc2ncc(-c3cc4ccccc4o3)n2n1 [Example 12, 2-{[3-(1-Benzofuran-2-yl)imidazo[1,2-b]pyridazin-6-yl]oxy}ethanamine] | 10 | 27
CC(C)(N)CCOc1ccc2ncc(-c3cc4ccccc4o3)n2n1 [Example 14, 4-{[3-(1-Benzofuran-2-yl)imidazo[1,2-b]pyridazin-6-yl]oxy}-2-methylbutan-2-amine] | 20 | 39
C[C@H](CN)Oc1ccc2ncc(-c3cc4cc(Cl)ccc4o3)n2n1 [Example 15, (2R)-2-{[3-(5-Chloro-1-benzofuran-2-yl)imidazo[1,2-b]pyridazin-6-yl]oxy}-propan-1-amine] | 36 | 197
NC[C@H](Oc1ccc2ncc(-c3cc4ccccc4o3)n2n1)c1ccccc1 [Example 16, (2R)-2-{[3-(1-Benzofuran-2-yl)imidazo[1,2-b]pyridazin-6-yl]oxy}-2-phenylethanamine] | 26 | 49
N[C@H](COc1ccc2ncc(-c3cc4ccccc4o3)n2n1)c1ccccc1 [Example 17, (1S)-2-{[3-(1-Benzofuran-2-yl)imidazo[1,2-b]pyridazin-6-yl]oxy}-1-phenylethanamine] | 6 | 10
N[C@@H](COc1ccc2ncc(-c3cc4ccccc4o3)n2n1)c1ccccc1 [Example 18, (1R)-2-{[3-(1-Benzofuran-2-yl)imidazo[1,2-b]pyridazin-6-yl]oxy}-1-phenylethanamine] | 22 | 33
N[C@H](COc1ccc2ncc(-c3cc4cc(Cl)ccc4o3)n2n1)c1ccccc1 [Example 19, (1S)-2-{[3-(5-Chloro-1-benzofuran-2-yl)imidazo[1,2-b]pyridazin-6-yl]oxy}-1-phenylethanamine] | 25 | 111
NC[C@H]1C[C@H](Oc2ccc3ncc(-c4cc5ccccc5o4)n3n2)C1 [Example 20, 1-(trans-3-{[3-(1-Benzofuran-2-yl)imidazo[1,2-b]pyridazin-6-yl]oxy}cyclobutyl)-methanamine] | 4 | 6
N[C@H]1C[C@H](COc2ccc3ncc(-c4cc5ccccc5o4)n3n2)C1 [Example 22, trans-3-({[3-(1-Benzofuran-2-yl)imidazo[1,2-b]pyridazin-6-yl]oxy}methyl)cyclobutanamine] | 6 | 17
N[C@H]1CCC[C@@H]1Oc1ccc2ncc(-c3cc4ccccc4o3)n2n1 [Example 24, (1S,2S)-2-{[3-(1-Benzofuran-2-yl)imidazo[1,2-b]pyridazin-6-yl]oxy}cyclopentanamine] | 10 | 19
N[C@H]1CCC[C@H]1Oc1ccc2ncc(-c3cc4ccccc4o3)n2n1 [Example 25, (1S,2R)-2-{[3-(1-Benzofuran-2-yl)imidazo[1,2-b]pyridazin-6-yl]oxy}cyclopentanamine salt with formic acid] | 7 | 22
NCC(Cc1ccccc1)Oc1ccc2ncc(-c3cc4ccccc4o3)n2n1 (stereo not drawn) [Example 26, 2-{[3-(1-Benzofuran-2-yl)imidazo[1,2-b]pyridazin-6-yl]oxy}-3-phenylpropan-1-amine salt with formic acid] | 15 | 25
CC(C)(N)COc1ccc2ncc(-c3cc4ccccc4o3)n2n1 [Example 29, 1-{[3-(1-Benzofuran-2-yl)imidazo[1,2-b]pyridazin-6-yl]oxy}-2-methylpropan-2-amine] | 17 | 59
NCC(Oc1ccc2ncc(-c3cc4ccccc4o3)n2n1)C1CC1 (stereo not drawn) [Example 30, 2-{[3-(1-Benzofuran-2-yl)imidazo[1,2-b]pyridazin-6-yl]oxy}-2-cyclopropylethanamine] | 41 | 75
NCC(CN)Oc1ccc2ncc(-c3cc4ccccc4o3)n2n1 [Example 34, 2-{[3-(1-Benzofuran-2-yl)imidazo[1,2-b]pyridazin-6-yl]oxy}propane-1,3-diamine] | 39 | 92
